Measured values published in US11980636B2, “Treatment of hematological disorders” (Jazz Pharmaceuticals Ireland Limited, priority 2020, dated 2024).
Where two headings read alike, the source gives them in different places. Values belong to the molecule of their own block, whether it stands above or below them.

Experiments:
HL-60 cells = assay: CellTiter-Glo cell viability, 72 hours; format: cell-based; conditions: Homo sapiens
Description: (§1) AML cell lines used were: HL-60 (ATCC), SKM-1 (Sekisui XenoTech) and KG-1 (ATCC). Acute Lymphoid Leukemia (ALL) cell lines used were: CCRF-CEM (ATCC), MOLT-3 (ATCC), and Jurkat E6-1 (ATCC). […] After 24 hours, cells were dosed with CPX-351, venetoclax, azacitidine, decitabine, and/or cytarabine. CPX-351 and cytarabine were each dosed in a titration starting at 50 μM (for CPX-351, this was measured by its cytarabine content), with 8 additional serial dilutions of 5× each and a final group with no treatment. […] For the combination treatment of CPX-351 and venetoclax, the same titrations were used as in single-agent treatment. About 72 hours after dosing, cell viability was measured by CellTiter-Glo assay (Promega) according to manufacturer instructions; luminescence was measured and IC50 values were estimated by Cytation Multi-Mode reader (BioTek).

MOLT-3 cells = assay: CellTiter-Glo cell viability, 72 hours; format: cell-based; conditions: Homo sapiens
Description: as §1

Jurkat E6-1 cells = assay: CellTiter-Glo cell viability, 72 hours; format: cell-based; conditions: Homo sapiens
Description: as §1

KG-1 cells = assay: CellTiter-Glo cell viability, 72 hours; format: cell-based; conditions: Homo sapiens
Description: as §1

CCRF-CEM cells = assay: CellTiter-Glo cell viability, 72 hours; format: cell-based; conditions: Homo sapiens, read-out: IC50 values
Description: as §1

SKM-1 cells = assay: CellTiter-Glo cell viability, 72 hours; format: cell-based; conditions: Homo sapiens
Description: as §1

clinical = conditions: human, in vivo, intravenous; for Vd: 195 mg
[1] = for Vp (Vp2), peripheral volume of distribution: population mean coefficient at BSA 1.95 (daunorubicin dose 86 mg), following CPX-351; for CLd (CLd2), distribution clearance: population mean coefficient at BSA 1.95, following CPX-351
[2] = in vivo; cited from earlier work
GCSF receptor = target: T1, GCSF receptor (Homo sapiens, UniProt Q99062); conditions: population mean, cited from earlier work; for Kd: read-out: KD, equilibrium dissociation constant for GCSF and GCSF receptor
T1 sequence (Q99062 25-836): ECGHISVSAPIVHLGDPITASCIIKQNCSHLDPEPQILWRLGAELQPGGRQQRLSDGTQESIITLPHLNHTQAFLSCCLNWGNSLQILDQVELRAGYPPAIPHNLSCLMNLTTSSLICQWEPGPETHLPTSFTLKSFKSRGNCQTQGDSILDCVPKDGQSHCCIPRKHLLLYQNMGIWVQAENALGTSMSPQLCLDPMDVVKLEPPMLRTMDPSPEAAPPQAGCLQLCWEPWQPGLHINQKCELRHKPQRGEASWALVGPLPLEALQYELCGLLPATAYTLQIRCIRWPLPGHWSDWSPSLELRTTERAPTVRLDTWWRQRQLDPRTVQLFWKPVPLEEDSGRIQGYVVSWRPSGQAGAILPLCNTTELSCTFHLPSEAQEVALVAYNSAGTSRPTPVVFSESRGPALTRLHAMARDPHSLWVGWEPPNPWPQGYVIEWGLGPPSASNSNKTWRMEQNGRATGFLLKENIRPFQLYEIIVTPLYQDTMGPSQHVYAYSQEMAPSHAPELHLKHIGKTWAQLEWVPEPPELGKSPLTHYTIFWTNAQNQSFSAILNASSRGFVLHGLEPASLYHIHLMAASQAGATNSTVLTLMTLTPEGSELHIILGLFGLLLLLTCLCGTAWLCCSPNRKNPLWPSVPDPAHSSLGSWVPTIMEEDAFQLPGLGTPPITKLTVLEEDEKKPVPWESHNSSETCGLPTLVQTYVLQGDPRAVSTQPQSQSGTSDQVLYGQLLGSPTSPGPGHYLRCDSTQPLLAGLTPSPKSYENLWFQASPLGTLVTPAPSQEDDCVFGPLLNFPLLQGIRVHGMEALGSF

[3] = HL-60, HL60, AML, CPX-351 by cytarabine content, read-out: IC50 values
[4] = MOLT-3, ALL, CPX-351 by cytarabine content, read-out: IC50 values
[5] = Jurkat E6-1, ALL, CPX-351 by cytarabine content, read-out: IC50 values
[6] = KG-1, AML, CPX-351 by cytarabine content, read-out: IC50 values
[7] = ALL, CPX-351 by cytarabine content
[8] = SKM-1, AML, CPX-351 by cytarabine content, read-out: IC50 values

- IC50 (HL-60 cells; [3]): 1420 nM
- IC50 (MOLT-3 cells; [4]): 4030 nM
- IC50 (Jurkat E6-1 cells; [5]): 980 nM
- IC50 (CCRF-CEM cells; [7]): 1580 nM
- IC50 (SKM-1 cells; [8]): 420 nM
Molecule: Nc1ncn([C@@H]2O[C@H](CO)[C@@H](O)[C@H]2O)c(=O)n1 [Azacitidine]
- IC50 (KG-1 cells; [6]): 4000 nM

- IC50 (HL-60 cells; [3]): 850 nM
- IC50 (MOLT-3 cells; [4]): 80 nM
- IC50 (Jurkat E6-1 cells; [5]): 40 nM
- IC50 (CCRF-CEM cells; [7]): 30 nM
- IC50 (SKM-1 cells; [8]): 540 nM
- clearance (clinical): 1.77 mL/min
- Vd (clinical): 5.12 L
- Vp (Vp2), peripheral volume of distribution [1]: 0.214 · (BSA/1.95)^1 L
- CLd (CLd2), distribution clearance [1]: 0.00646 · (BSA/1.95)^1 L/h
Molecule: Nc1ccn([C@@H]2O[C@H](CO)[C@@H](O)[C@@H]2O)c(=O)n1 [Cytarabine, 1-β-D-arabinofuranosylcytosine]
- IC50 (KG-1 cells; [6]): 240 nM

The remaining lines, values behind:

Molecule: COc1cccc2c1C(=O)c1c(O)c3c(c(O)c1C2=O)C[C@@](O)(C(C)=O)C[C@@H]3O[C@H]1C[C@H](N)[C@H](O)[C@H](C)O1 [Daunorubicin]
- clearance (clinical): 2.42 mL/min
- Vd (clinical): 4.34 L
- Vp (Vp2), peripheral volume of distribution [1]: 0.523 · (BSA/1.95)^1 · L
- CLd (CLd2), distribution clearance [1]: 0.0258 · (BSA/1.95)^1 L/h

Molecule: Nc1ncn([C@H]2C[C@H](O)[C@@H](CO)O2)c(=O)n1 [Decitabine]
- IC50 (HL-60 cells; HL-60, read-out: IC50 values): 820 nM
- IC50 (MOLT-3 cells; MOLT-3, read-out: IC50 values): 230 nM
- IC50 (Jurkat E6-1 cells; Jurkat E6.1, read-out: IC50 values): 100 nM
- IC50 (KG-1 cells; KG-1, read-out: IC50 values): 360 nM
- IC50 (CCRF-CEM cells): 40 nM
- IC50 (SKM-1 cells; SKM-1, read-out: IC50 values): 240 nM

Molecule: CC1(C)CCC(CN2CCN(c3ccc(C(=O)NS(=O)(=O)c4ccc(NCC5CCOCC5)c([N+](=O)[O-])c4)c(Oc4cnc5[nH]ccc5c4)c3)CC2)=C(c2ccc(Cl)cc2)C1 [Venetoclax]
- IC50 (HL-60 cells; [3]): 50 nM
- IC50 (MOLT-3 cells; [4]): 1000 nM
- IC50 (Jurkat E6-1 cells; [5]): 3500 nM
- IC50 (KG-1 cells; [6]): 2100 nM
- IC50 (CCRF-CEM cells; [7]): 2800 nM
- IC50 (SKM-1 cells; [8]): 1500 nM

B1: Filgrastim: exogenous GCSF agent (protein, UniProt P09919 31-207, looked up)
Granulocyte …: TPLGPASSLPQSFLLKCLEQVRKIQGDGAALQEKLVSECATYKLCHPEELVLLGHSLGIPWAPLSSCPSQALQLAGCLSQLHSGLFLYQGLLQALEGISPELGPTLDTLQLDVADFATTIWQQMEELGMAPALQPTQGAMPAFASAFQRRAGGVLVASHLQSFLEVSYRVLRHLAQP
modifications: filgrastim, N-terminal Met
notes: exogenous GCSF agent
- CL, clearance [2]: 0.833 · (WTKG/70)^0.641 L/h
- D2, duration of the zero-order absorption process [2]: 6.6 h
- F1, bioavailability of first-order absorption process [2]: 0.105
- F2, bioavailability of zero-order absorption process [2]: 0.586
- Vc, central volume of distribution [2]: 3.12 · (WTKG/70)^0.943 L
- ka, first-order absorption rate constant [2]: 0.403 h⁻¹
- kint, first-order rate constant for internalization of GCSF receptor complexed with filgrastim or pegfilgrastim (GCSF receptor): 0.113 h⁻¹
- Kd (GCSF receptor): 0.0237 nM

B2: Pegfilgrastim: exogenous GCSF agent (protein, UniProt P09919 31-207, looked up)
Granulocyte …: B1 Granulocyte …
modifications: pegfilgrastim; PEGylated, N-terminal Met
notes: exogenous GCSF agent
- F1, bioavailability of first-order absorption process [2]: 0.646
- Vc, central volume of distribution [2]: 5.76 · (WTKG/70)^0.943 L
- clearance [2]: 6.03 mL/min
- ka, first-order absorption rate constant [2]: 0.0188 h⁻¹
- kint, first-order rate constant for internalization of GCSF receptor complexed with filgrastim or pegfilgrastim (GCSF receptor): 0.113 h⁻¹
- Kd (GCSF receptor): 0.0959 nM
